Values joined by “and” are separate entries in the source; they are usually repeats but may differ in a detail not shown here. Equal entries are not always repeated.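 48-hour exposure; five concentrations; linearly interpolated endpoints. The concentration for 50% growth inhibition is given as GI50. Definition used: TGI = concentration required for complete inhibition of growth.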
Assays:
Test in all cases: inhibition of tumour cell growth, NCI panel, 48 h
SK-MEL-5 melanoma = tested on: SK-MEL-5 melanoma
OVCAR-3 ovarian = tested on: OVCAR-3 ovarian
BT-549 breast = tested on: BT-549 breast
NCI-H226 lung = tested on: NCI-H226 lung
SF-539 CNS = tested on: SF-539 CNS
A549 NSCLC = tested on: A549 NSCLC
SK-MEL-28 melanoma = tested on: SK-MEL-28 melanoma
MCF7 breast = tested on: MCF7 breast
SK-MEL-2 melanoma = tested on: SK-MEL-2 melanoma
DU-145 prostate = tested on: DU-145 prostate

| SMILES | GI50 (SK-MEL-5 melanoma) | TGI (SK-MEL-5 melanoma) | GI50 (OVCAR-3 ovarian) | TGI (OVCAR-3 ovarian) | GI50 (BT-549 breast) | TGI (BT-549 breast) | GI50 (NCI-H226 lung) | TGI (NCI-H226 lung) | GI50 (SF-539 CNS) | TGI (SF-539 CNS) | GI50 (A549 NSCLC) | TGI (A549 NSCLC) [µM] | GI50 (SK-MEL-28 melanoma) | TGI (SK-MEL-28 melanoma) | GI50 (MCF7 breast) | TGI (MCF7 breast) | GI50 (SK-MEL-2 melanoma) | TGI (SK-MEL-2 melanoma) | GI50 (DU-145 prostate) | TGI (DU-145 prostate) |
| --- | --- | --- | --- | --- | --- | --- | --- | --- | --- | --- | --- | --- | --- | --- | --- | --- | --- | --- | --- | --- |
| O=C(Nc1ccc(Br)cc1)c1cc(Br)ccc1O | 0.304 µM and 0.416 µM | 1.16 µM and 1.56 µM | 0.314 µM and 0.535 µM | 7.81 µM and 7.14 µM | 0.327 µM and 0.724 µM | 2.12 µM and 3.03 µM | 0.747 µM and 0.729 µM | 4.52 µM and 4.03 µM | 0.647 µM and 0.7 µM | 13 µM and 10.1 µM | 1.09 µM and 2.5 µM | > 100 | 0.314 µM and 1.44 µM | 2.17 µM and 5.14 µM | 0.412 µM and 1.29 µM | 3.37 µM and 7.8 µM | 0.278 µM and 1.74 µM | 1.25 µM and 5 µM | 0.539 µM and 2.03 µM | > 47 µM and 14.1 µM |
| O=C1/C(=C/c2ccc([N+](=O)[O-])s2)Oc2ccc(Br)cc21 | 0.268 µM | 0.805 µM | 0.207 µM | 0.409 µM | 0.257 µM | 0.741 µM | 1.14 µM | 2.84 µM | 0.212 µM | 0.517 µM | 0.376 µM | 1.68 | 0.302 µM | 0.951 µM | 0.309 µM | 1.87 µM | 0.231 µM | 0.509 µM | 1.43 µM | 2.9 µM |
| CN(C)Cc1nsc(N(C)C)n1 |  | > 100 µM |  | > 100 µM |  | > 100 µM |  | > 100 µM |  | > 100 µM |  | > 100 |  | > 100 µM |  | > 100 µM |  | > 100 µM |  | > 100 µM |
| O=C1c2c[n+](Cc3ccccc3)ccc2-c2nc3ccccc3c3ccnc1c23 | 0.439 µM | 1.04 µM | 0.379 µM | 1.87 µM | 1.15 µM | 4.85 µM | 0.537 µM | 3.07 µM | 0.545 µM | 1.17 µM | 0.323 µM | 1.99 | 0.954 µM | 3.95 µM | 0.163 µM | 0.89 µM | 0.646 µM | 1.77 µM | 0.417 µM | 0.891 µM |
| O=C(NCCc1nccs1)c1cnc2c(S)cccc2c1 | 3.2 µM | 16 µM | 2.47 µM | 9.21 µM | 2.61 µM | > 100 µM | 5.7 µM | 21.4 µM | 4.17 µM | 42.7 µM | 3.18 µM | 13.3 | 3.5 µM | > 100 µM | 1.02 µM | 37.5 µM | 3.57 µM | 26.5 µM | 3.27 µM | 13.7 µM |
| COc1cccc(C2=C(c3cn(C)c4c(C)cccc34)C(=O)NC2=O)c1 | 21.5 µM | > 25 µM | 16.5 µM | > 25 µM | > 25 µM | > 25 µM | 19.4 µM | > 25 µM | > 25 µM | > 25 µM | > 23.2 µM | > 25 | > 25 µM | > 25 µM | 16.5 µM | > 25 µM | > 16.9 µM | > 25 µM | > 25 µM | > 25 µM |
| O=C(O)CC(CC(=O)O)n1cccc1 |  | > 100 µM |  | > 100 µM |  | > 100 µM |  | > 100 µM |  | > 100 µM |  | > 100 |  | > 100 µM |  | > 100 µM |  | > 100 µM |  | > 100 µM |
| CN(COC(=O)C(C)(C)C)c1nc(N(C)COC(=O)C(C)(C)C)nc(N(C)COC(=O)C(C)(C)C)n1 |  | > 100 µM |  | > 100 µM |  | > 100 µM |  | > 100 µM |  | > 100 µM |  | > 100 |  | > 100 µM |  | > 100 µM |  | > 100 µM |  | > 100 µM |
| Nc1ncnc2c1ncn2C1OC(F)(COS(N)(=O)=O)C(O)C1O (configuration not stated) | > 100 µM | > 100 µM | > 100 µM | > 100 µM | > 100 µM | > 100 µM | > 100 µM | > 100 µM | > 100 µM | > 100 µM | > 100 µM | > 100 | > 100 µM | > 100 µM | > 100 µM | > 100 µM | > 100 µM | > 100 µM | > 100 µM | > 100 µM |
| CCOC(=O)c1c(C)n(Cc2ccc(Cl)cc2Cl)c2c1cc(O)c1[nH]c(Cc3ccccc3)nc12 | 1.58 µM | 3.25 µM | 2.97 µM | 8.13 µM | 2.77 µM | 7.02 µM | 14 µM | 30.9 µM | 7.62 µM | 19.9 µM | 2.86 µM | 14 | 13 µM | 27.7 µM | 3.24 µM | 10.1 µM | 9.39 µM | 37.2 µM | 3.07 µM | 8.66 µM |
| N#C/C(=C\c1ccccn1)c1nc2ccccc2o1 | 18 µM | 43 µM | 29.7 µM | > 100 µM | 17.3 µM | 36.1 µM | 39.3 µM | > 100 µM | 23.8 µM | 66.5 µM | 36.5 µM | > 100 | 20.7 µM | 45 µM | 16 µM | > 100 µM | 29.1 µM | > 100 µM | 34.4 µM | > 100 µM |
| CC12CC(Br)(Br)C(=O)C3C1CCCC32 |  | 17.5 µM |  | 7.08 µM |  | 5.04 µM |  | 27.2 µM |  | 23 µM |  | 36.5 |  | 6.61 µM |  | 11.2 µM |  | 30.4 µM |  | 25.1 µM |
| CC(C)C[C@H](NC(=O)[C@@H](N)Cc1cccc2ccccc12)B(O)O | 0.176 µM |  | 0.187 µM |  | 0.87 µM |  |  | < 0.0186 µM | 0.178 µM |  | 0.926 µM |  | 0.186 µM |  | 0.389 µM | 50 µM | 0.598 µM |  | 0.0736 µM | 6.14 µM and 1.15 µM |
| Cc1nc2ccccc2c(/C=C/c2ccc(F)cc2)c1C(=O)/C=C/c1ccccc1 | 2.11 µM | 5.12 µM | 1.57 µM | 3.12 µM | 2.98 µM | 13.6 µM | 1.85 µM | 4.16 µM | 1.81 µM | 3.57 µM | 2.88 µM | 10.3 | 2.36 µM | 5.67 µM | 2.08 µM | > 100 µM | 3.22 µM | 15.8 µM | 2.34 µM | 6.21 µM |
